According to patent US20230337678A1, “NITRIC OXIDE-RELEASING ANTIBACTERIAL COMPOUNDS, FORMULATIONS, AND METHODS PERTAINING THERETO” (KNOW BIO, LLC, priority 2020, published 2023):

Columns and labels:
Mycobacterium abscessus = experiment: MIC/MBC assays, CLSI method; type: cell-based; conditions: Table 14, unit not given

| MIC (Mycobacterium abscessus; M. abscessus N0010, clinical) | MIC (Mycobacterium abscessus; M. abscessus N0016, clinical) | MIC (Mycobacterium abscessus; M. abscessus N0017, clinical) | MIC (Mycobacterium abscessus; M. abscessus N0018, clinical) | MIC (Mycobacterium abscessus; M. abscessus N0019, clinical) | MIC (Mycobacterium abscessus; M. abscessus N0020, clinical) | MIC (Mycobacterium abscessus; M. abscessus N0046) | NO Load (Table 14, unit not given) | Compound | NO-loading (compositions of MTDD (NCT-19-096) and β-cyclodextrin) [µmol/mg] | MBC (Mycobacterium abscessus; M. abscessus N0010, clinical) | MBC (Mycobacterium abscessus; M. abscessus N0016, clinical) | MBC (Mycobacterium abscessus; M. abscessus N0017, clinical) | MBC (Mycobacterium abscessus; M. abscessus N0018, clinical) | MBC (Mycobacterium abscessus; M. abscessus N0019, clinical) | MBC (Mycobacterium abscessus; M. abscessus N0020, clinical) | MBC (Mycobacterium abscessus; M. abscessus N0046) |
| --- | --- | --- | --- | --- | --- | --- | --- | --- | --- | --- | --- | --- | --- | --- | --- | --- |
| – | – | – | – | – | – | – | – | OC[C@H]1O[C@@H]2O[C@H]3[C@H](O)[C@@H](O)[C@@H](O[C@H]4[C@H](O)[C@@H](O)[C@@H](O[C@H]5[C@H](O)[C@@H](O)[C@@H](O[C@H]6[C@H](O)[C@@H](O)[C@@H](O[C@H]7[C@H](O)[C@@H](O)[C@@H](O[C@H]8[C@H](O)[C@@H](O)[C@@H](O[C@H]1[C@H](O)[C@H]2O)O[C@@H]8CO)O[C@@H]7CO)O[C@@H]6CO)O[C@@H]5CO)O[C@@H]4CO)O[C@@H]3CO [0% MTDD/100% β-cyclodextrin, β-cyclodextrin] | 0.0 | – | – | – | – | – | – | – |
| 1 | 2 | 2 | 1 | 2 | 1 | 2 | 6.9 | C[C@@H]1CCC[C@H](C)N1[N+]([O-])=N[O-].[Na+] [cis-DMP/NO] | – | 4 | 4 | 4 | 4 | 4 | 2 | 4 |
